Here are results for nine compounds from patent US9233965B2, “3,4-dihydropyrrolo[1,2-A]pyrazine-2,8(1H)-dicarboxamide derivatives, preparation thereof and therapeutic use thereof for diseases involving casein kinase 1 epsilon and/or casein kinase 1 delta” (SANOFI, priority 2010, dated 2016).

Structures are written as SMILES. Values joined by “and” are separate entries in the source; they are usually repeats but may differ in a detail not shown here. Identical values can stand only once.

Data set [1] concerns the target casein kinase 1 epsilon (CK1 epsilon) (Homo sapiens (Human), UniProt P49674). The data set can be described thus: Test A: inhibitory activity on CK1 epsilon, casein phosphorylation assay on ATP-33P filter plate. Type of data set: biochemical. The following applies: IC50 values or IC50 ranges (result of several experiments), ATP 10 μM final. An outline of the steps:
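Human CK1 epsilon (3 ng/μL final) phosphorylates dephosphorylated casein (0.2 μg/μL) with ATP-33P plus 10 μM cold ATP (KM for ATP 21 μM), 2 h at room temperature, pH 7.5 Tris buffer. TCA-precipitated protein counted by scintillation; compounds at 10 to 0.001 μM give IC50 values or % inhibition at 10 μM.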

In data set [2] the test system is Mper1-luc Rat-1 (P2C4) fibroblasts. Briefly: Test C: circadian cell assay, mPer1-luciferase reporter period analysis. Type of data set: cell-based. The following applies: effective concentration that induces a 1-hour prolongation of the circadian period; values or ranges from several experiments. As for the experimental part:
Test C: Experimental Protocol for Circadian Cell Assay
Mper1-luc Rat-1 (P2C4) fibroblast cultures were prepared by dividing the cultures every 3-4 days (about 10-20% of confluence) on 150 cm^2 degassed polystyrene tissue culture flasks (Falcon® #35-5001) and maintained in growth medium [EMEM (Cellgro #10-010-CV); 10% foetal bovine serum (FBS; Gibco #16000-044); and 50 I.U./mL of penicillin-streptomycin (Cellgro #30-001-Cl)] at 37° C. and under 5% CO2.
Cells obtained from Rat-1 fibroblast cultures at 30-50% of confluence as described above were co-transfected with vectors containing the selection marker for resistance to zeocin for a stable transfection and a luciferase reporter gene directed by the promoter mPer-1. After 24 to 48 hours, the cultures were divided on 96-well plates and maintained in growth medium supplemented with 50-100 μg/mL of zeocin (Invitrogen® #45-0430) for 10-14 days. The zeocin-resistant stable transfectants were evaluated for expression of the reporter by adding to the growth medium luciferin 100 μM (Promega® #E1603®) and by assaying the luciferase activity on a TopCount® scintillation counter (Packard model #C384V00). The Rat-1 cell clones expressing both zeocin resistance and luciferase activity directed by mPer1 were serum-shock-synchronized with 50% horse serum [HS (Gibco® #16050-122)] and the activity of the circadian reporter was evaluated. The P2C4 clone of fibroblasts Mper1-luc Rat-1 was selected to test the compound.
The Mper1-luc Rat-1 (P2C4) fibroblasts at 40-50% of confluence obtained according to the protocol described above were plated out onto 96-well opaque tissue culture plates (Perkin Elmer® #6005680). The cultures are maintained in growth medium supplemented with 100 μg/mL of zeocin (Invitrogen #45-0430) until they reached 100% of confluence (48-72 hours). The cultures were then synchronized with 100 μL of synchronization medium [EMEM (Cellgro #10-010-CV); 100 I.U./mL of penicillin-streptomycin (Cellgro #30-001-C1); 50% HS (Gibco #16050-122)] for 2 hours at 37° C. and under 5% CO2. After synchronization, the cultures were rinsed with 100 μL of EMEM (Cellgro #10-010-CV) for 10 minutes at room temperature. […]
The period analysis was performed either by determining the interval between the relative light emission minima over several days or by Fourier transform. […] The data were analysed by adjusting a hyperbolic curve to the data expressed as change of period (y-axis) as a function of the concentration of the test compound (x-axis) in the XLfit™ software and the EC Delta (t+1 h) was interpolated from this curve. […]

The target of another data set is human CK1 delta (Homo sapiens (Human), UniProt P48730). The data set can be described thus: Test B: inhibitory activity on CK1 delta measured by FRET (Z'Lyte kinase assay kit). Type of data set: biochemical. To be noted: substrate peptide SER/THR 11 2 μM, ATP 4 times the KM. The text has this:
Test B: Inhibitory Activity on CK1 Delta Measured by FRET
The capacity of the compounds of the invention to inhibit the phosphorylation of casein by the casein kinases 1 epsilon and delta may be evaluated using an FRET (Fluorescence Resonance Energy Transfer) fluorescence test with the aid of the “Z'Lyte™ kinase assay kit” (reference PV3670; Invitrogen Corporation™) according to the manufacturer's instructions.
The casein kinases 1 used are obtained from Invitrogen Corporation (human CK1 epsilon PV3500 and human CK1 delta PV3665).
A peptide substrate labelled at both ends with a fluorophore-donating group (coumarin) and a fluorophore-accepting group (fluorescein) constituting an FRET system is […] in the presence of ATP by casein kinase 1 epsilon or delta in the presence of increasing concentrations of compounds of the invention.
The mixture is treated with a site-specific protease that specifically cleaves the substrate peptide to form two fluorescent fragments having a large fluorescence emission ratio.
The fluorescence observed is thus related to the capacity of the products of the invention to inhibit the phosphorylation of the substrate peptide by casein kinase 1 epsilon or casein kinase 1 delta. […]
The emitted fluorescence is measured at wavelengths of 445 and 520 nm (excitation at 400 nm). […]

Sequence of casein kinase 1 epsilon (CK1 epsilon) (P49674 whole entry): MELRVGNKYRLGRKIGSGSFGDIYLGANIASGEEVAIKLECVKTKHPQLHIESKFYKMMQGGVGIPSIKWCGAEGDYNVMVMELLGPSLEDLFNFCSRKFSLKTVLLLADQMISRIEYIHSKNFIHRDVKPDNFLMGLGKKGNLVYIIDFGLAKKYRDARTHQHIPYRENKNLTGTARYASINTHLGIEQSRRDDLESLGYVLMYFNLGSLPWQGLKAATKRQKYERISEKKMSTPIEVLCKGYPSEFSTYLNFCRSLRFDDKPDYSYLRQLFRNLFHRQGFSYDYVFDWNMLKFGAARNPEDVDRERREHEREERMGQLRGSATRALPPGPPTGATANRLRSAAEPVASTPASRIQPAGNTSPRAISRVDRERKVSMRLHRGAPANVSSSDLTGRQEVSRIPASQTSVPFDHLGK
Sequence of human CK1 delta (P48730 whole entry): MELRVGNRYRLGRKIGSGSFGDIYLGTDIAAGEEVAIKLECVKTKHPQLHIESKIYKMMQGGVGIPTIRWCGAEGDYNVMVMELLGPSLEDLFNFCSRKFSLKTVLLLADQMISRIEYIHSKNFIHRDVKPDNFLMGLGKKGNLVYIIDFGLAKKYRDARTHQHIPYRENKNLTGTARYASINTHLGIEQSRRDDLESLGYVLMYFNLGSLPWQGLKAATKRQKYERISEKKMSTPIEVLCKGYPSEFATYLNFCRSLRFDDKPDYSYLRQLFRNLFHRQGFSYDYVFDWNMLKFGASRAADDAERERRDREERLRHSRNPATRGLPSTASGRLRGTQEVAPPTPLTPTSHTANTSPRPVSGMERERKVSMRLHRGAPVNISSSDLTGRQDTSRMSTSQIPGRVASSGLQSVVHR

`CC(C)(C)NC(=O)N1CCn2c(c(C(N)=O)c(-c3ccc4ccccc4c3)c2C2CC2)C1` [Compound 25, N^2-tert-butyl-6-cyclo-propyl-7-(naphthalen-2-yl)-3,4-dihydropyrrolo[1,2-a]pyrazine-2,8(1H)-dicarboxamide] returned an IC50 in data set [1] of 0.033 µM. In addition, the “CE Delta (t + 1 h)” value in data set [2] is recorded as 26 nM.
The compound `Cc1c(-c2ccccc2)c(C(N)=O)c2n1CCN(C(=O)NC(C)(C)C)C2` [Compound 3, N^2-tert-butyl-6-methyl-7-phenyl-3,4-dihydropyrrolo[1,2-a]pyrazine-2,8(1H)-dicarboxamide] showed an IC50 in data set [1] of 0.005 to 0.104 µM. For the same compound, the “CE Delta (t + 1 h)” value in data set [2] came to 8 nM.
With `NC(=O)c1c(-c2ccccc2)c(C2CC2)n2c1CN(C(=O)NC13CC4CC(CC(C4)C1)C3)CC2` [Compound 54, N^2-(adamantan-1-yl)-6-cyclo-propyl-7-phenyl-3,4-dihydropyrrolo[1,2-a]pyrazine-2,8(1H)-dicarboxamide], the IC50 in data set [1] is 0.006 µM. Further, the “CE Delta (t + 1 h)” value in data set [2] came to 15 nM.
Turning to `CC(C)(C)NC(=O)N1CCn2c(c(C(N)=O)c(-c3ccccc3)c2C2CC2)C1` [Compound 10, N^2-tert-butyl-6-cyclo-propyl-7-phenyl-3,4-dihydropyrrolo[1,2-a]pyrazine-2,8(1H)-dicarboxamide], the IC50 in data set [1] was 0.015 to 0.077 µM; on human CK1 delta, 0.031 µM.
Take `Cc1cccc(-c2c(C(N)=O)c3n(c2Cl)CCN(C(=O)NC2CCOCC2)C3)c1` [Compound 94, 6-chloro-7-(3-methylphenyl)-N^2-(tetrahydro-2H-pyran-4-yl)-3,4-dihydropyrrolo[1,2-a]pyrazine-2,8(1H)-dicarboxamide]: the melting point was in the range of 231 to 234 °C. The compound also gave a half-maximal inhibitory concentration (IC50) in data set [1] of 0.002 to 0.018 µM.
`CC(C)(NC(=O)N1CCn2c(Cl)c(-c3cccc(F)c3)c(C(N)=O)c2C1)C(F)(F)F` [Compound 79, 6-chloro-7-(3-fluorophenyl)-N^2-(1,1,1-trifluoro-2-methylpropan-2-yl)-3,4-dihydropyrrolo[1,2-a]pyrazine-2,8(1H)-dicarboxamide]: the melting point lay within 183 to 187 °C. In addition, the IC50 in data set [1] is 0.001 to 0.004 µM.
As to `N#Cc1c(-c2cccc(F)c2)c(C(N)=O)c2n1CCN(C(=O)NC1CCOCC1)C2` [Compound 109, 6-cyano-7-(3-fluorophenyl)-N^2-(tetrahydro-2H-pyran-4-yl)-3,4-dihydropyrrolo[1,2-a]pyrazine-2,8(1H)-dicarboxamide], the melting point is 232 to 234 °C. Further, inhibition in data set [1] was half-maximal at 0.009 µM (IC50).
`CC(C)(C)NC(=O)N1CCn2c(Cl)c(-c3ccccc3)c(C(N)=O)c2C1` [Compound 60, N^2-tert-butyl-6-chloro-7-phenyl-3,4-dihydropyrrolo[1,2-a]pyrazine-2,8(1H)-dicarboxamide]: the melting point was 197 to 199 °C and 192 to 195 °C. Further, the concentration for half-maximal inhibition (IC50) in data set [1] lay within 0.001 to 0.012 µM. Moreover, in data set [2], the “CE Delta (t + 1 h)” value lay in the range of 3 to 20 nM.
As for `NC(=O)c1c(-c2ccccc2)c(Cl)n2c1CN(C(=O)NCC(F)(F)F)CC2` [Compound 76, 6-chloro-7-phenyl-N^2-(2,2,2-trifluoroethyl)-3,4-dihydropyrrolo[1,2-a]pyrazine-2,8(1H)-dicarboxamide], the melting point lay within 210 to 213 °C. The 50% inhibitory concentration (IC50) in data set [1] fell in the range of 0.01 to 0.027 µM.
